Measured values published in article PMC8533149 (Biomolecules, 2021).
Where two headings read alike, the source gives them in different places.

How the values were obtained:
[1] = system: dsDNA (double stranded control sequence); assay: FRET melting assay, duplex control; type: binding; details: 50:1
Description: (§1) To evaluate stabilizing properties of the ligands in a complex with oligodeoxyribonucleotides (ODNs) melting with fluorescence registration was used. ODN (0.5 μM) (Table 1), labeled with 6-carboxyfluorescein (FAM) and 6-carboxytetramethylrhodamine (TAMRA) at the 5′- and 3′-end, respectively, were folded in lithium cacodylate buffer (10 mM, pH 7.4) with 100 mM KCl by heating at 95 °C for 5 min and gradually cooling to r.t. GFP chromophore analogs (5 mM solution in DMSO) were diluted with the same buffer to the final concentration of 25 μM and mixed with an equal volume of 0.5 μM ODN solution resulting in a molar ratio of 50:1 (total volume was 50 μL). For the titration experiments molar ratios of 20:1 and 2:1 were used. Samples were analyzed using DTprime qPCR system (DNA-Technology LLC, Moscow, Russia). Fluorescence was registered by detection of FAM emission at 520 nm upon excitation at 495 nm in the temperature range of 30–95 °C with 1 °C/min gradient. Tm was determined using the instrument software and ΔTm was calculated relative to ODN Tm in a buffer solution containing 0.25% (v/v) DMSO. The primary and secondary screening were carried out in singlicate and triplicate, respectively.
(§2) Initially we screened an in-house library of 440 synthetic GFP chromophore analogues for interaction with HIV-1 LTR-III sequence, which modulates HIV-1 promoter activity, using high-throughput screening (HTS) FRET melting assay (Table S1). […] We selected 11 compounds (Figure 2A), displaying stabilization in the range of 2.4–7.8 °C, and evaluated their ability to stabilize other G4-forming sequences, including human telomeric sequence Telo (one of the most common G4 structures in the human genome, having two conformations, Hybrid-1 and Hybrid-2 [36]) and model G4 […] (the G-rich Pu39 region of the P1 promoter of the oncogene BCL-2, an apoptosis regulator [37] with polymorphic conformational structure), as well as double stranded oligonucleotide (duplex) control sequence (Figure 2B, Table S2).

[2] = system: human telomeric sequence Telo G4; assay: FRET melting assay, Telo; type: binding; details: 50:1
Description: as §1, §2

[3] = system: Pu39 G4 (G-rich region of the P1 promoter of BCL-2); assay: FRET melting assay, Pu39; type: binding, human; details: 50:1
Description: as §1, §2

[4] = system: MT4 cells; assay: Cytotoxicity test; type: cell-based; details: Table S12, nine days
Description: (§3) Green monkey kidney (Vero, Beach, FL, USA) cell line was maintained in 2 × Eagle MEM (“Chumakov FSC R&D IBP RAS”, Russia) with 5% FBS with L-glutamine, penicillin and streptomycin. […] HIV-1 strain NL4-3 was obtained via cell transfection with pNL4-3 3 (ARP2006, NIBSC, Potters Bar, UK).
(§4) MT4 cell suspensions were added to the wells with compound dilutions and DMSO control (approx. 2 × 10^4 cells per well). […] All experimental procedures were performed in two replicates and were repeated two to four times. Mean and SD were calculated with OriginPro 8 (OriginLab, St. Louis, MO, USA).

[5] = Cytotoxicity test; type: cell-based; details: human, MT4 cells (human T cell leukemia), Figure 7
Description: as §3, §4

[6] = system: HIV-1 LTR-III G-quadruplex (FAM/TAMRA-labeled LTR-III); assay: FRET melting assay, LTR-III G4; type: binding; details: for LTR-III (average): Table S12, average stabilization; for LTR III stabilization: Figure 7, stabilization group
Outline: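 Melting is followed by FAM fluorescence (ex 495/em 520 nm) while heating at 1 °C/min from 30 to 95 °C. Labelled ODN at 0.5 μM, pre-annealed in 10 mM Li cacodylate, 100 mM KCl, pH 7.4, mixed with ligand at 50:1 (25 μM), or 20:1 and 2:1 for titration. ΔTm is relative to the 0.25% DMSO buffer control.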

[7] = system: HIV-1 strain NL4-3 in MT4 cells; assay: Cytopathic effect inhibition test; type: cell-based; details: HIV-1 NL4-3, MT4 cells
Description: Human T cell leukemia (MT4) cell line was maintained in RPMI-1640 (“Chumakov FSC R&D IBP RAS”, Moscow, Russia) with 10% of fetal bovine serum (FBS, Invitrogen, Waltham, MA, USA), L-glutamine and gentamicin. Green monkey kidney (Vero, Beach, FL, USA) cell line was maintained in 2 × Eagle MEM (“Chumakov FSC R&D IBP RAS”, Russia) with 5% FBS with L-glutamine, penicillin and streptomycin. Cell cultures were incubated in the present of 5% CO2 at 37 °C. HIV-1 strain NL4-3 was obtained via cell transfection with pNL4-3 3 (ARP2006, NIBSC, Potters Bar, UK).
Eight two-fold dilutions of stock solutions of the compounds in two replicates were prepared in RPMI-1640 (“Chumakov FSC R&D IBP RAS”, Russia). Compound dilutions were mixed with equal volumes of the virus suspension containing 100 CCID50 (50% tissue culture infectious dose). Control cells were treated with the same sequential concentrations of DMSO as in compound dilutions. Then, the MT4 cell suspension (approx. 2 × 10^4 cells per well) in RPMI-1640 containing 10% FBS (Invitrogen, South America) was added to experimental mixtures. A final concentration series started from 25 μM. Each experiment contained virus dose titration in the inoculate to assure the acceptable dose-range. After a nine-day incubation (5% CO2, at 37 °C), cytopathic effect (CPE) was visually accessed via microscope. EC50 values were calculated according to the Karber method. All experimental procedures were performed in two replicates and were repeated two to four times. Mean and SD were calculated with OriginPro 8 (OriginLab, St. Louis, MO, USA).

[8] = Table S2, primary screening lead compounds
[9] = Table S1 primary screening, ligand:ODN 50:1, singlicate
[10] = Table S5, newly synthesized compounds
[11] = LTR-III G4/ligand molar ratio 1:20
[12] = LTR-III G4/ligand molar ratio 1:50
[13] = Table S3 primary screening of newly synthesized analogs, 50:1
[14] = Human immunodeficiency virus 1, NL43, 216 h, Table S12, CPE, nine-day incubation, read-out: EC50
[15] = Human immunodeficiency virus 1, NL43, Figure 7, read-out: Antiviral activity EC50 (HIV)

SMILES	ΔTm Duplex [1, 8] [°C]	ΔTm Telo [2, 8] [°C]	ΔTm Pu39 [3, 8] [°C]	СС50 (MT4) [4] [µM]	CC50 at 9 days [5] [nM]	LTR-III ΔTm [6, 9] [°C]	LTR-III (average) [6]	ΔTm Duplex [1, 10] [°C]	ΔTm Telo [2, 10] [°C]	ΔTm Pu39 [3, 10] [°C]	LTR III stabilization [6] [°C]	ΔTm, titration ([6]; LTR-III G4/ligand molar ratio 1:2) [°C]	ΔTm, titration [6, 11] [°C]	ΔTm, titration [6, 12] [°C]	LTR-III ΔTm [6, 13] [°C]	EC50 [7, 14] [nM]	EC50 [7, 15] [nM]	EC50 ([7]; Table S12, CPE, nine-day incubation)
COc1ccc(/C=C2\N=C(CC(C)C)C(=O)N(O)C2=O)cc1 [M 813]	0±0.04	-0.6±0.9	-1.5±1	0.46 ± 0.16	500 ± 200	2.9	1,65 °C	–	–	–	–	–	–	–	–	–	–	–
CN1C(=O)/C(=C/c2cc[n+](C)cc2)N=C1c1ccccc1 [M 903.2]	0.1±0.07	0.4±0.1	-1±0.5	> 25	> 25000	2.8	2,3 °C	–	–	–	–	–	–	–	–	–	–	–
COc1cc(/C=C2N=C(/C=C/c3cc(OC)c(O)c(OC)c3)N(C)C\2=O)cc(OC)c1O [N1193]	–	–	–	2.3 ± 1.1	2000 ± 1000	–	14 °C	0.6±0.1	9.5±0.1	3.8±0.04	> 3	2.4±0.6	9.1±0.6	13.1±0.2	14	–	–	–
COc1cc(/C=C2N=C(/C=C/C=C/c3ccc(N(C)C)cc3)N(C)C\2=O)cc(OC)c1O [N1195]	–	–	–	5.9 ± 2.6	6000 ± 3000	–	4,2 °C	0.1±0.1	0.9±0.3	1.8±0.1	> 3	–	–	–	4.2	3780 ± 910	3800 ± 900	–
COc1cc(/C=C2N=C(/C=C/c3ccnc4ccccc34)N(C)C\2=O)cc(OC)c1O [N1196]	–	–	–	> 25	> 25000	–	–	0.5±0.1	8.7±0.2	7.2±0.4	> 3	–	7.9±0.4	11.3±0.3	11.7	–	–	–
COc1c(O)ccc(/C=C2N=C(/C=C/c3ccnc4ccccc34)N(C)C\2=O)c1OC [N1197]	–	–	–	1.66 ± 0.79	1700 ± 800	–	11,3 °C	-0.4±0.2	4.6±0.2	7±0.7	> 3	–	8.5±0.3	11.4±0.2	11.3	–	–	–
COc1c(O)ccc(/C=C2N=C(/C=C/c3cc(Cl)nc(Cl)c3)N(C)C\2=O)c1OC [N1198]	–	–	–	2.8 ± 1.1	3000 ± 1000	–	6,5 °C	0±0.1	0.9±0.2	0.1±0.1	> 3	–	–	–	6.5	1780 ± 380	1800 ± 400	micromolar range
COc1c(O)ccc(/C=C2N=C(/C=C/c3cc(Br)c(O)c(Br)c3)N(C)C\2=O)c1OC [N1199]	–	–	–	4.6 ± 2.5	5000 ± 3000	–	4,3 °C	0±0.1	0.9±0.1	0±0.2	> 3	–	–	–	4.3	3300 ± 1100	3000 ± 1000	–
